The values that follow come from patent US20050070510A1, “Substituted tetracycline compounds as synergistic antifungal agents” (Paratek Pharmaceuticals, Inc., priority 2001, published 2005).

The test system of this data set is COS-1 cells. Briefly: In vitro mammalian cytotoxicity assay (Resazurin).
For the compound `CN(C)c1cc(CCc2ccccc2)c(O)c2c1C[C@@]1(N)C[C@@]3(N)[C@H](N(C)C)C(O)=C(C(N)=O)C(=O)[C@@]3(C#N)C(O)=C1C2=O` [MN], the “In Vitro Cytotoxicity” value is reported as “** (toxicities less than 25 μg/mL are represented by **)”.
In the case of `CN(C)[C@@H]1C(O)=C(C(N)=O)C(=O)[C@@]2(C#N)C(O)=C3C(=O)c4c(O)ccc(-c5ccc(I)c(C=O)c5)c4C[C@@]3(N)C[C@@]12N` [PL], the “In Vitro Cytotoxicity” value was “** (toxicities less than 25 μg/mL are represented by **)”.
With `CC(=O)c1ccc(O)c2c1[C@H](N)[C@]1(N)C(=C(O)[C@]3(C#N)C(=O)C(C(N)=O)=C(O)[C@@H](N(C)C)[C@]3(N)[C@H]1O)C2=O` [CR] the entry was “** (toxicities less than 25 μg/mL are represented by **)”; with `CN(C)CC#Cc1ccc(O)c2c1C[C@@]1(N)C[C@@]3(N)[C@H](N(C)C)C(O)=C(C(N)=O)C(=O)[C@@]3(C#N)C(O)=C1C2=O` [FJ], “** (toxicities less than 25 μg/mL are represented by **)”; with `CN(C)c1ccc(O)c2c1C[C@@]1(N)C[C@@]3(N)[C@H](N(C)C)C(O)=C(C(=O)NCNC(=O)CCl)C(=O)[C@@]3(C#N)C(O)=C1C2=O` [KG], “** (toxicities less than 25 μg/mL are represented by **)”.
As to `CC(N)CNCc1cc(N(C)C)c2c(c1O)C(=O)C1=C(O)[C@]3(C#N)C(=O)C(C(N)=O)=C(O)[C@@H](N(C)C)[C@]3(N)C[C@]1(N)C2` (stereo partly shown) [SV], the “In Vitro Cytotoxicity” value is reported as “* (toxicities greater than >25 μg/ml are represented by *)”.
As to `CCC(C)CNCc1cc(N(C)C)c2c(c1O)C(=O)C1=C(O)[C@]3(C#N)C(=O)C(C(N)=O)=C(O)[C@@H](N(C)C)[C@]3(N)C[C@]1(N)C2` (stereo partly shown) [SZ], the “In Vitro Cytotoxicity” value was “* (toxicities greater than >25 μg/ml are represented by *)”.
The entry for `CN(C)[C@@H]1C(O)=C(C(N)=O)C(=O)[C@@]2(C#N)C(O)=C3C(=O)c4c(ccc(NC5CCCC5)c4O)[C@H](N)[C@@]3(N)[C@H]([S+](N)[O-])[C@@]12N` (stereo partly shown) [CA] is “** (toxicities less than 25 μg/mL are represented by **)”.
The entry for `CCCCC#Cc1ccc(O)c2c1C[C@@]1(N)C[C@@]3(N)[C@H](N(C)C)C(O)=C(C(N)=O)C(=O)[C@@]3(C#N)C(O)=C1C2=O` [IG] is “** (toxicities less than 25 μg/mL are represented by **)”; for `CN(C)[C@@H]1C(O)=C(C(N)=O)C(=O)[C@@]2(C#N)C(O)=C3C(=O)c4c(O)ccc(/C=C/c5ccc(C(F)(F)F)cc5)c4C[C@@]3(N)C[C@@]12N` [HK] it is “** (toxicities less than 25 μg/mL are represented by **)”; for `CC(C)COC(=O)NCc1ccc(O)c2c1C[C@@]1(N)C[C@@]3(N)[C@H](N(C)C)C(O)=C(C(N)=O)C(=O)[C@@]3(C#N)C(O)=C1C2=O` [NO] it is “** (toxicities less than 25 μg/mL are represented by **)”.
In the case of `CCc1cc(CNCC(C)C)c(O)c2c1C[C@@]1(N)C[C@@]3(N)[C@H](N(C)C)C(O)=C(C(N)=O)C(=O)[C@@]3(C#N)C(O)=C1C2=O` [RK], the “In Vitro Cytotoxicity” value is on record as “* (toxicities greater than >25 μg/ml are represented by *)”.
With `CCN(CC)Cc1ccc(OC)c(-c2ccc(O)c3c2C[C@@]2(N)C[C@@]4(N)[C@H](N(C)C)C(O)=C(C(N)=O)C(=O)[C@@]4(C#N)C(O)=C2C3=O)c1` [LR] the entry was “* (toxicities greater than >25 μg/ml are represented by *)”; with `CN(C)[C@@H]1C(O)=C(C(N)=O)C(=O)[C@@]2(C#N)C(O)=C3C(=O)c4c(O)ccc(C#CCc5ccccc5)c4C[C@@]3(N)C[C@@]12N` [GZ], “** (toxicities less than 25 μg/mL are represented by **)”.
Turning to `COc1ccc(CNCc2ccc(-c3ccc(O)c4c3C[C@@]3(N)C[C@@]5(N)[C@H](N(C)C)C(O)=C(C(N)=O)C(=O)[C@@]5(C#N)C(O)=C3C4=O)cc2)cc1` [PI], the “In Vitro Cytotoxicity” value was “** (toxicities less than 25 μg/mL are represented by **)”.
With `CN(C)[C@@H]1C(O)=C(C(N)=O)C(=O)[C@@]2(C#N)C(O)=C3C(=O)c4c(O)c(F)cc(CN)c4C[C@@]3(N)C[C@@]12N` [NQ] the entry was “** (toxicities less than 25 μg/mL are represented by **)”.
With `CN(C)[C@@H]1C(O)=C(C(N)=O)C(=O)[C@@]2(C#N)C(O)=C3C(=O)c4c(O)c(CNC(=O)c5cccnc5)cc(CCC5CCCCC5)c4C[C@@]3(N)C[C@@]12N` [JC] the entry was “** (toxicities less than 25 μg/mL are represented by **)”; with `CN(C)CC(=O)NCc1ccc(-c2ccc(O)c3c2C[C@@]2(N)C[C@@]4(N)[C@H](N(C)C)C(O)=C(C(N)=O)C(=O)[C@@]4(C#N)C(O)=C2C3=O)cc1` [NY], “** (toxicities less than 25 μg/mL are represented by **)”.
Take `CN(C)[C@@H]1C(O)=C(C(N)=O)C(=O)[C@@]2(C#N)C(O)=C3C(=O)c4c(O)ccc(-c5cc6ccccc6o5)c4C[C@@]3(N)C[C@@]12N` [FW]: the “In Vitro Cytotoxicity” value is on record as “** (toxicities less than 25 μg/mL are represented by **)”.
The entry for `CN(C)c1cc(C2C=CCC2)c(O)c2c1C[C@@]1(N)C[C@@]3(N)[C@H](N(C)C)C(O)=C(C(N)=O)C(=O)[C@@]3(C#N)C(O)=C1C2=O` (stereo partly shown) [DO] is “** (toxicities less than 25 μg/mL are represented by **)”; for `CN(C)[C@@H]1C(O)=C(C(N)=O)C(=O)[C@@]2(C#N)C(O)=C3C(=O)c4c(O)ccc(-c5ccccc5)c4C[C@@]3(N)C[C@@]12N` [CX] it is “* (toxicities greater than >25 μg/ml are represented by *)”; for `CN(C)[C@@H]1C(O)=C(C(N)=O)C(=O)[C@@]2(C#N)C(O)=C3C(=O)c4c(O)ccc(/C=C(\Cl)C5=CCCCC5)c4C[C@@]3(N)C[C@@]12N` [GG] it is “** (toxicities less than 25 μg/mL are represented by **)”.
With `COc1ccc(C(=O)Nc2ccc(-c3ccc(O)c4c3C[C@@]3(N)C[C@@]5(N)C(N(C)C)C(O)=C(C(N)=O)C(=O)[C@@]5(C#N)C(O)=C3C4=O)cc2)cc1` (stereo partly shown) [QR] the entry was “** (toxicities less than 25 μg/mL are represented by **)”; with `CN(C)[C@@H]1C(O)=C(C(N)=O)C(=O)[C@@]2(C#N)C(O)=C3C(=O)c4c(O)ccc(-c5ccccn5)c4[C@H](N)[C@@]3(N)[C@H](O)[C@@]12N` [CN], “* (toxicities greater than >25 μg/ml are represented by *)”; with `CN(C)[C@@H]1C(O)=C(C(N)=O)C(=O)[C@@]2(C#N)C(O)=C3C(=O)c4c(O)ccc(-c5ccc(NC(=O)CN)cc5)c4C[C@@]3(N)C[C@@]12N` [VA], “** (toxicities less than 25 μg/mL are represented by **)”.
With `Cc1ccc(-c2ccc(O)c3c2C[C@@]2(N)C[C@@]4(N)[C@H](N(C)C)C(O)=C(C(N)=O)C(=O)[C@@]4(C#N)C(O)=C2C3=O)cc1N` [PK] the entry was “** (toxicities less than 25 μg/mL are represented by **)”; with `CN(C)[C@@H]1C(O)=C(C(N)=O)C(=O)[C@@]2(C#N)C(O)=C3C(=O)c4c(O)cccc4[C@H](OSC(F)(F)C(F)(F)F)[C@@]3(N)[C@H](O)[C@@]12N` [AS], “** (toxicities less than 25 μg/mL are represented by **)”; with `CN(C)[C@@H]1C(O)=C(C(N)=O)C(=O)[C@@]2(C#N)C(O)=C3C(=O)c4c(O)ccc(CCc5ccccc5)c4C[C@@]3(N)C[C@@]12N` [IN], “** (toxicities less than 25 μg/mL are represented by **)”.
Take `CCCCCC(=O)c1ccc(O)c2c1C[C@@]1(N)C[C@@]3(N)[C@H](N(C)C)C(O)=C(C(N)=O)C(=O)[C@@]3(C#N)C(O)=C1C2=O` [TT]: the “In Vitro Cytotoxicity” value is reported as “** (toxicities less than 25 μg/mL are represented by **)”.
As to `CCCNCc1ccc(OC)c(-c2ccc(O)c3c2C[C@@]2(N)C[C@@]4(N)[C@H](N(C)C)C(O)=C(C(N)=O)C(=O)[C@@]4(C#N)C(O)=C2C3=O)c1` [LV], the “In Vitro Cytotoxicity” value is on record as “* (toxicities greater than >25 μg/ml are represented by *)”.
Consider `CCc1cc(C#CC2=CCCCC2)c(O)c2c1C[C@@]1(N)C[C@@]3(N)[C@H](N(C)C)C(O)=C(C(N)=O)C(=O)[C@@]3(C#N)C(O)=C1C2=O` [KE], for which the “In Vitro Cytotoxicity” value is “** (toxicities less than 25 μg/mL are represented by **)”.
With `CN(C)[C@@H]1C(O)=C(C(N)=O)C(=O)[C@@]2(C#N)C(O)=C3C(=O)c4c(O)cccc4[C@H](N)[C@@]3(N)[C@H](OC(=O)C34CC5CC(CC(C5)C3)C4)[C@@]12N` [CJ] the entry was “** (toxicities less than 25 μg/mL are represented by **)”.
`CN(C)[C@@H]1C(O)=C(C(N)=O)C(=O)[C@@]2(C#N)C(O)=C3C(=O)c4c(O)c(C(C)(C)C)cc(I)c4C[C@@]3(N)C[C@@]12N` [NR]: the “In Vitro Cytotoxicity” value is recorded as “** (toxicities less than 25 μg/mL are represented by **)”.
Regarding `CN(C)c1cc(-c2ccc(OC(F)(F)F)cc2)c(O)c2c1C[C@@]1(N)C[C@@]3(N)[C@H](N(C)C)C(O)=C(C(N)=O)C(=O)[C@@]3(C#N)C(O)=C1C2=O` [MA], the “In Vitro Cytotoxicity” value is listed as “** (toxicities less than 25 μg/mL are represented by **)”.
For `CCc1cc(C(C)=O)c(O)c2c1C[C@@]1(N)C[C@@]3(N)[C@H](N(C)C)C(O)=C(C(N)=O)C(=O)[C@@]3(C#N)C(O)=C1C2=O` [RJ], the “In Vitro Cytotoxicity” value is on record as “** (toxicities less than 25 μg/mL are represented by **)”.
Consider `CCC#Cc1ccc(O)c2c1C[C@@]1(N)C[C@@]3(N)[C@H](N(C)C)C(O)=C(C(N)=O)C(=O)[C@@]3(C#N)C(O)=C1C2=O` [JW], for which the “In Vitro Cytotoxicity” value is listed as “** (toxicities less than 25 μg/mL are represented by **)”.
As for `CN(C)c1cc(NC(=O)Nc2cccc3ccccc23)c(O)c2c1C[C@@]1(N)C[C@@]3(N)[C@H](N(C)C)C(O)=C(C(N)=O)C(=O)[C@@]3(C#N)C(O)=C1C2=O` [CF], the “In Vitro Cytotoxicity” value is on record as “** (toxicities less than 25 μg/mL are represented by **)”.
Consider `CN(C)[C@@H]1C(O)=C(C(N)=O)C(=O)[C@@]2(C#N)C(O)=C3C(=O)c4c(O)ccc(C#Cc5c(F)c(F)c(F)c(F)c5F)c4C[C@@]3(N)C[C@@]12N` [FK], for which the “In Vitro Cytotoxicity” value is “** (toxicities less than 25 μg/mL are represented by **)”.
The entry for `CN(C)CCCc1ccc(O)c2c1C[C@@]1(N)C[C@@]3(N)[C@H](N(C)C)C(O)=C(C(=O)NC(C)(C)C)C(=O)[C@@]3(C#N)C(O)=C1C2=O` [HH] is “* (toxicities greater than >25 μg/ml are represented by *)”; for `CN(C)c1cc(CNC(=O)Nc2ccc(OC(F)(F)F)cc2)c(O)c2c1C[C@@]1(N)C[C@@]3(N)[C@H](N(C)C)C(O)=C(C(N)=O)C(=O)[C@@]3(C#N)C(O)=C1C2=O` [NE] it is “* (toxicities greater than >25 μg/ml are represented by *)”.
